Experimental data: paper PMC8280061, “A novel ligand of the translationally controlled tumor protein (TCTP) identified by virtual drug screening for cancer differentiation therapy” (Investigational New Drugs, 2021)

How the values were obtained:
[1] = molecular target: T1, translationally controlled tumor protein (TCTP) (Homo sapiens, UniProt P13693); experiment: microscale thermophoresis with NHS-labeled purified human TCTP (reference inhibitor, positive control); assay type: binding
T1 construct: gene TPT1
T1 sequence (P13693 1-172): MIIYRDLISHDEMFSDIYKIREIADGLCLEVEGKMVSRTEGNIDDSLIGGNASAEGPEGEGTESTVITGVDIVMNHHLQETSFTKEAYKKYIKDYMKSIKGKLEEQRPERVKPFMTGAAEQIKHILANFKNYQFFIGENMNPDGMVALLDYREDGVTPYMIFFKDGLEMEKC

[2] = molecular target: T1, translationally controlled tumor protein (TCTP); experiment: microscale thermophoresis with NHS-labeled purified human TCTP; supported by co-immunoprecipitation of p53 from treated MOLT-4 cells; assay type: binding

Compound	Kd [1]	Kd [2]
C[C@H]1[C@H](OC(=O)CCC(=O)O)O[C@@H]2O[C@@]3(C)CC[C@H]4[C@H](C)CC[C@@H]1[C@@]24OO3 [Artesunate]	23.2 ± 9.45 µM	–
COc1cccc2c(C)nc(Nc3nc(-c4ccc(F)cc4)cc(=O)[nH]3)nc12 [ZINC10157406, 6-(4-fluorophenyl)-2-[(8-methoxy-4-methyl-2-quinazolinyl)amino]-4(3H)-pyrimidinone]	–	0.87 ± 0.38 µM
